Laboratory results reported in patent US12138254B2, “Chronic nightly dosing of lasmiditan for migraine prevention” (Eli Lilly and Company, priority 2018, dated 2024).
Entries after “also recorded” stand apart in the source; their conditions may differ.

Tested on: patients with migraine
Assay: GLADIATOR open-label Phase 3 study, long-term intermittent lasmiditan; MIDAS interim analysis
Format: in vivo, human
Conditions: for change in MIDAS migraine disability, headache days and headache pain/severity over time: lasmiditan 100 mg or 200 mg, up to 12 months
Method: The placebo-controlled Phase 3 studies SAMURAI (NCT02439320) and SPARTAN (NCT02605174) evaluated lasmiditan 50 mg [SPARTAN only], 100 mg and 200 mg. […] GLADIATOR (NCT02565186) is a prospective randomized open-label Phase 3 study to evaluate long-term intermittent use of lasmiditan (100 mg or 200 mg) for acute treatment of migraine. An interim analysis of the effects of lasmiditan on migraine disability assessed with the MIDAS scale in GLADIATOR is described below, and has provided surprising and unexpected evidence of persistent beneficial effects in migraine patients.
Patients who completed SAMURAI or SPARTAN were offered participation in GLADIATOR with randomization to lasmiditan 100 mg or lasmiditan 200 mg which represents an uncontrolled, open-label study. […] This interim analysis includes patients with MIDAS score data at baseline of GLADIATOR and post-baseline assessments. The analysis presented is based on the MIDAS questionnaire administered at baseline and at months 3, 6, 9 and 12. An additional analysis was also conducted in the subgroup of patients who completed 12 months. Changes were modelled using a mixed model repeated measures analysis MIDAS measures lost time due to migraine in days over 3 months. Domains included are activity limitations at work, household work or family, social and leisure activity.
Key inclusion criteria were patients who were eligible for SAMURAI or SPARTAN and had at least moderate migraine disability (MIDAS score ≥11). Patients were randomized 1:1 for acute treatment of migraine with either lasmiditan 100 mg for up to 12 months, or lasmiditan 200 mg for up to 12 months. Patients used lasmiditan as the first treatment for each new migraine attack (≤4 hours of Migraine pain onset). […] Assessments of safety and efficacy were conducted, including MIDAS questionnaires at baseline and months 3, 6, 9 and 12. MIDAS Questionnaire (See for example Stewart et al., Neurology 1999; 53:988-94, Stewart et al., Neurology 2001; 56: S20-8) The sum of Questions 1-5 below represents the Total MIDAS score. • 1. […]

CN1CCC(C(=O)c2cccc(NC(=O)c3c(F)cc(F)cc3F)n2)CC1 [Lasmiditan, 2,4,6-trifluoro-N-[6-(1-methyl-piperidin-4-ylcarbonyl)-pyridin-2-yl]-benzamide]
difference between lasmiditan 100 mg and 200 mg doses, any outcome (GLADIATOR MIDAS outcomes): no significant differences
change in MIDAS migraine disability, headache days and headache pain/severity over time: decreases over time
change in MIDAS migraine disability, headache days and headache pain/severity over time (listed as lasmiditan): large, clinically meaningful improvement; also recorded: a decrease over the 12-month treatment period
